According to ChEMBL document CHEMBL1144869, “Introduction of a chemical constraint in a short peptide derived from human acidic fibroblast growth factor elicits mitogenic structural determinants” (2003):

Key:
NIH3T3 = assay: Displacement of human acidic FGF from FGF receptor of mouse 3T3 cells at 0-200 uM; format: cell-based
Mus musculus = species on record: Mus musculus; assay: Mitogenic effect on BALB/c 3T3 A31 fibroblast culture at 0-200 uM; format: functional; conditions: BALB/c3T3, read-out: ED50 (the source's name)

Structure (SMILES) | ID50 (NIH3T3) [µM] | EC50 (Mus musculus) [µM]
CC(=O)N[C@@H](Cc1c[nH]c2ccccc12)C(=O)N[C@@H](Cc1ccccc1)C(=O)N[C@H](C(=O)NCC(=O)N[C@@H](CC(C)C)C(=O)N[C@@H](CCCCN)C(=O)N[C@@H](CCCCN)C(=O)N[C@@H](CC(N)=O)C(=O)NCC(=O)N[C@@H](CO)C(=O)N[C@@H](CO)C(=O)N[C@@H](CCCCN)C(=O)N[C@@H](CCCN=C(N)N)C(=O)NCC(=O)N1CCC[C@@H]1C(=O)N[C@@H](CCCN=C(N)N)C(=O)N[C@H](C(N)=O)[C@@H](C)O)C(C)C | 50 | 
CC(=O)N[C@@H](Cc1c[nH]c2ccccc12)C(=O)N[C@@H](Cc1ccccc1)C(=O)N[C@H](C(=O)NCC(=O)N[C@@H](CC(C)C)C(=O)N[C@@H](CCCCN)C(=O)N[C@@H](CCCCN)C(=O)N[C@@H](CC(N)=O)C(=O)NCC(=O)N[C@@H](CO)C(=O)N[C@@H](CO)C(=O)N[C@@H](CCCCN)C(=O)N[C@@H](CCCN=C(N)N)C(=O)NCC(=O)N1CCC[C@H]1C(=O)N[C@@H](CCCN=C(N)N)C(=O)N[C@H](C(N)=O)[C@@H](C)O)C(C)C |  | 20
